In patent US20010014737A1, “Vitronectin receptor antagonist” (priority 1997, published 2001):

Target: T1, ανβ3 (the vitronectin receptor) (Homo sapiens, UniProt P05106+P06756)
T1 construct: Human placenta or human platelet ανβ3 (0.1-0.3 mg/mL) in buffer T; from tissue; host or cells: human placenta or human platelets
Test: Solid-Phase [3H]-SK&F-107260 Binding to ανβ3 (inhibition of vitronectin binding)
Details: read-out: inhibits [3H]-SK&F-107260 binding to ανβ3 at a concentration
Experimental: Inhibition of vitronectin binding
Solid-Phase [^3H]-SK&F-107260 Binding to ανβ3: Human placenta or human platelet ανβ3 (0.1-0.3 mg/mL) in buffer T (containing 2 mM CaCl2 and 1% octylglucoside) was diluted with buffer T containing 1 mM CaCl2, 1 mM MnCl2, 1 mM MgCl2 (buffer A) and 0.05% NaN3, and then immediately added to 96-well ELISA plates (Corning, New York, N.Y.) at 0.1 mL per well. 0.1 - 0.2 μg of ανβ3 was added per well. The plates were incubated overnight at 4° C. At the time of the experiment, the wells were washed once with buffer A and were incubated with 0.1 mL of 3.5% bovine serum albumin in the same buffer for 1 hr at room temperature. Following incubation the wells were aspirated completely and washed twice with 0.2 mL buffer A. […]
The plates were incubated for 1 hr at room temperature. […] The receptors were solubilized with 0.1 mL of 1% SDS and the bound f^3H]-SK&F-107260 was determined by liquid scintillation counting with the addition of 3 mL Ready Safe in a Beckman LS Liquid Scintillation Counter, with 40% efficiency. Nonspecific binding of [^3H]-SK&F-107260 was determined in the presence of 2 μM SK&F-107260 and was consistently less than 1% of total radioligand input. […]

T1 sequence (P06756 31-889 limits assumed): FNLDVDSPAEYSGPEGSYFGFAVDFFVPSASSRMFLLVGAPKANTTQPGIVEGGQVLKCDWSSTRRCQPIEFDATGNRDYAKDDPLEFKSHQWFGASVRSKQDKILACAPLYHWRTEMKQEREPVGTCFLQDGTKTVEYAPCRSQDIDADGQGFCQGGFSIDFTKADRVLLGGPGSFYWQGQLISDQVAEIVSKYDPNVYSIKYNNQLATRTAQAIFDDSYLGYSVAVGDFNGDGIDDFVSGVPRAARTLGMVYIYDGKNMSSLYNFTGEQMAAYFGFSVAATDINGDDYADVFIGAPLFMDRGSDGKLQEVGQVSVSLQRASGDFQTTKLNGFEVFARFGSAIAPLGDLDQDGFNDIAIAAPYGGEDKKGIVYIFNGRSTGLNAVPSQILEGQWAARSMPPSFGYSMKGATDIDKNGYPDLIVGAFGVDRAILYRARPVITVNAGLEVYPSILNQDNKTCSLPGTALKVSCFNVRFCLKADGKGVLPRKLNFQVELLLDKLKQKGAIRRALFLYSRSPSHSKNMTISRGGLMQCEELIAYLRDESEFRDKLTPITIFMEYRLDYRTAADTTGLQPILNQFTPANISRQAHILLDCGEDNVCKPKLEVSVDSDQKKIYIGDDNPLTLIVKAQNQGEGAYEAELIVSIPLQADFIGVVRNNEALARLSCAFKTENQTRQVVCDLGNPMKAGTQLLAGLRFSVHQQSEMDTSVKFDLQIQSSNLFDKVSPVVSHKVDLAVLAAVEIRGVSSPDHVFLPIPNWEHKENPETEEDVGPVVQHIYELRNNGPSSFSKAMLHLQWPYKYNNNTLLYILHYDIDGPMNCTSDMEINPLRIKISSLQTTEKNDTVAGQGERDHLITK
T1 sequence (P06756 891-1048 partner limits assumed): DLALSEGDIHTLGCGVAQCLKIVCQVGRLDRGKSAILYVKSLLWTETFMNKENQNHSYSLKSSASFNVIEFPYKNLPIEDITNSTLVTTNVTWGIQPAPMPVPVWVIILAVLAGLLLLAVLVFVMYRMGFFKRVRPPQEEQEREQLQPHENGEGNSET
T1 sequence (P05106 27-788): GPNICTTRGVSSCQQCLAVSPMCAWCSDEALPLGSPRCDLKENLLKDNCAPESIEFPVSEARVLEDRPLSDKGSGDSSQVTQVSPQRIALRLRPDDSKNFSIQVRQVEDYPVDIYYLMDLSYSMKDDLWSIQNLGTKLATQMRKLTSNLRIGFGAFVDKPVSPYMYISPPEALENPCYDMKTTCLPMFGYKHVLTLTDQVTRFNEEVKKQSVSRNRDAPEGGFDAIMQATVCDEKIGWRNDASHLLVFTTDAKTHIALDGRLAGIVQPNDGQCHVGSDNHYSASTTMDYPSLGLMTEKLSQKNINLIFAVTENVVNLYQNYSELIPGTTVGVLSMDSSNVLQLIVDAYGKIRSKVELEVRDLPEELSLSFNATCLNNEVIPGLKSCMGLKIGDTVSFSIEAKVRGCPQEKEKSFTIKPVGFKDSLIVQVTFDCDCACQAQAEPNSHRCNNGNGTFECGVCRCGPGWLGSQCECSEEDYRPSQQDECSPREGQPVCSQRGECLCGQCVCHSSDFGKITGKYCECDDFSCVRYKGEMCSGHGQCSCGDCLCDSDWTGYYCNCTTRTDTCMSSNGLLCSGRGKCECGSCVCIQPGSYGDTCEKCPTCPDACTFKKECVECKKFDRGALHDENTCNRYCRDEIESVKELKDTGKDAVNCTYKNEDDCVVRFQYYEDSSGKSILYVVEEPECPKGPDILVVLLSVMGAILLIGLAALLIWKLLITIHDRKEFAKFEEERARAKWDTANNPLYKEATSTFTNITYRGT

IC50: ~3 nM
Structure (SMILES): Cc1ccnc(NCCCOc2ccc3c(c2)CN(Cc2ccc(C(F)(F)F)cc2)C(=O)[C@H](CC(=O)O)C3)c1 [Example 1, (S)-8-[3-(4-methylpyridin-2-ylamino)-1-propyloxy]-3-oxo-2-[4-(trifluoromethyl)benzyl]-2,3,4,5-tetrahydro-1 H-2-benzazepine-4-acetic acid]
